Measured values reported in patent US10278942B2 (PELOTON THERAPEUTICS, INC., priority 2015, dated 2019).
Where two headings read alike, the source gives them in different places.

Assays:
[1] = biological target: T1, HIF-2α HIS TAG-PASB Domain (Homo sapiens, UniProt Q99814); test: HIF-2α Scintillation Proximity Assay (SPA); assay type: binding
T1 construct: 100 nM HIF-2α HIS TAG-PASB Domain
Method in brief: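 IC50 values rest on percent inhibition, where the sample signal is scaled between high and low controls. Wells contain about 100 μL: compound dispensed as 2 μL of DMSO solution, 88 μL protein-probe mix and 10 μL of beads.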

786-O cells = test: VEGF ELISA Assay; assay type: cell-based; conditions: Homo sapiens, 786-0
Procedure: Each concentration was plated in duplicate. About 20 hours later, medium was removed by suction and each well was supplied with 180 μL of growth medium. About 20 μl freshly-made 10× compound stocks were added to each well. […] The EC50 was calculated by GraphPad Prism using the dose-response-inhibition (four parameter) equation. The cell-seeded plate was then subjected to CellTiter-Glo luminescence cell viability assay (Promega) by adding 50 μL of Celltiter Glo reagent into each well and shaking the plate for 8 minutes at 550 rpm (Thermomixer R, Eppendorf) then the luminescence signal immediately read in a plate reader (3 second delay, 0.5 second/well integration time, Synergy 2 multi Detection Microplate reader).

786-O-Hif-Luc cells = test: Luciferase Assay (HIF responsive elements reporter)
Procedure: A pool of infected cells were then selected against 2 μg/mL of puromycin (P8833, Sigma) for 10 days followed by limited dilution to select single clones. […] Each concentration was tested in triplicate. After about 24 hours, luciferase activity was determined using ONE-Glo Luciferase Assay Reagent (E6110, Promega) following the manufacturer's recommended procedure. EC50 were calculated using Dotmatics software.

[2] = read-out: Scintillation Proximity Assay IC50
[3] = read-out: Mean Luciferase EC50 (nM), 786-O-Hif-Luc cells
[4] = Scintillation Proximity Assay IC50 (nM)

T1 sequence (Q99814 240-350 limits assumed): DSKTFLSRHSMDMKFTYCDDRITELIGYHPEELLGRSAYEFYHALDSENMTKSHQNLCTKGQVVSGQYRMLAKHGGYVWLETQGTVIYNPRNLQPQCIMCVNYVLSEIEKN

Row | SMILES | IC50 [1, 2] | EC50 (786-O cells) | EC50 (786-O-Hif-Luc cells; [3]) | IC50 [1, 4] | EC50 (786-O-Hif-Luc cells; read-out: Mean Luciferase EC50 (nM))
1 | CC(C)Oc1ccc(S(=O)(=O)C(F)(F)F)c2c1CC(F)(F)[C@H]2O [Compound 654] | < 50 nM | < 0.05 µM | < 50 nM | – | –
2 | O=S(=O)(c1ccc(Oc2cc(F)cc(F)c2)c2c1[C@H](O)CC2)C(F)(F)F [Compound 55] | < 50 nM | < 0.05 µM | < 50 nM | – | –
3 | CS(=O)(=O)c1ccc(Oc2cc(F)cc(Br)c2)c2c1[C@H](O)C(F)(F)C2 [Compound 304] | < 50 nM | 0.05 to 0.249 µM | < 50 nM | – | –
4 | CS(=O)(=O)c1ccc(Oc2cncc(C#N)c2)c2c1[C@H](O)C(F)(F)[C@@H]2F [Compound 342] | < 50 nM | 0.05 to 0.249 µM | 50 to 249 nM | – | –
5 | O[C@H]1c2c(C(F)(F)F)ccc(OCC(F)F)c2CC1(F)F [Compound 579] | < 50 nM | < 0.05 µM | < 50 nM | – | –
6 | CS(=O)(=NC#N)c1ccc(Oc2cc(F)cc(C#N)c2)c2c1[C@H](O)C(F)(F)C2 (single isomer, unassigned) [Compound 240] | < 50 nM | 0.05 to 0.249 µM | < 50 nM | – | –
7 | NC1c2c(ccc(Oc3cc(F)cc(F)c3)c2C(F)F)S(=O)(=O)C1(F)F (stereo not drawn) [Compound 365] | < 50 nM | 0.05 to 0.249 µM | 50 to 249 nM | – | –
8 | O=S(=O)(CF)c1ccc(Oc2cc(F)cc(F)c2)c2c1[C@H](O)C(F)(F)C2 [Compound 64] | < 50 nM | < 0.05 µM | < 50 nM | – | –
9 | CS(=O)(=O)c1ccc(Oc2cncc(C#N)c2)c2c1[C@H](O)C(F)(F)C2 [Compound 325] | 50 to 249 nM | 0.05 to 0.249 µM | 250 to 1000 nM | – | –
10 | O=S(=O)(CF)c1ccc(O[C@H]2C[C@H](F)C2)c2c1[C@H](O)[C@H](F)[C@@H]2F [Compound 743] | < 50 nM | 0.05 to 0.249 µM | < 50 nM | – | –
11 | O=S(=O)(c1ccc(Oc2cncc(Cl)c2)c2c1[C@H](O)C(F)(F)C2)C(F)(F)F [Compound 186] | < 50 nM | < 0.05 µM | < 50 nM | – | –
12 | CS(=O)(=O)c1ccc(Oc2cc(F)cc(C#N)c2)c2c1[C@H](O)C(F)(F)[C@@H]2F [Compound 292, 3-fluoro-5-[(1S,3R)-2,2,3-trifluoro-1-hydroxy-7-methylsulfonyl-indan-4-yl]oxy-benzonitrile] | < 50 nM | < 0.05 µM | < 50 nM | – | –
13 | O=S(=O)(c1ccc(Oc2cncc(F)c2)c2c1[C@H](O)C(F)(F)C2)C(F)(F)F [Compound 309] | < 50 nM | < 0.05 µM | < 50 nM | – | –
14 | O=S(=O)(c1ccc(Oc2cc(F)cc(F)c2)c2c1C(O)C(F)(F)C2)C(F)F (stereo not drawn) [Compound 9] | < 50 nM | < 0.05 µM | < 50 nM | – | –
15 | CS(=O)(=O)c1ccc(O[C@H]2C[C@@H](C#N)C2)c2c1[C@H](O)C(F)(F)[C@@H]2F [Compound 761] | < 50 nM | 0.05 to 0.249 µM | 50 to 249 nM | – | –
16 | O=S(=O)(CF)c1ccc(O[C@H]2C[C@H](F)C2)c2c1[C@H](O)C(F)(F)[C@@H]2F [Compound 742] | < 50 nM | < 0.05 µM | < 50 nM | – | –
17 | O=S(=O)(c1ccc(OCCCF)c2c1[C@H](O)C(F)(F)C2)C(F)(F)F [Compound 712] | < 50 nM | < 0.05 µM | < 50 nM | – | –
18 | N#Cc1cc(F)cc(Oc2ccc(S(=O)(=O)C(F)F)c(CO)c2Br)c1 [Compound 80] | < 50 nM | 0.25 to 1 µM | 250 to 1000 nM | – | –
19 | O=S(=O)(c1ccc(Oc2ccc(F)c(F)c2)c2c1[C@H](O)C(F)(F)C2)C(F)F [Compound 196] | < 50 nM | < 0.05 µM | < 50 nM | – | –
20 | N#Cc1cc(F)cc(Oc2ccc(S(=O)(=O)C(F)(F)F)c3c2CC(F)(F)[C@H]3O)c1 [Compound 185] | – | < 0.05 µM | < 50 nM | < 50 nM | –
21 | CS(=O)(=O)c1ccc(O[C@H]2C[C@@H](F)C2)c2c1[C@H](O)C(F)(F)[C@@H]2F [Compound 740] | < 50 nM | 0.05 to 0.249 µM | 50 to 249 nM | – | –
22 | O=S(=O)(c1ccc(Oc2cc(F)cc(Cl)c2)c2c1[C@H](O)C(F)(F)C2)C(F)F [Compound 158] | – | < 0.05 µM | < 50 nM | < 50 nM | –
23 | O=S(=O)(c1ccc(CCO)c2c1C(O)CC2)C(F)(F)F (stereo not drawn) [Compound 495, 4-(2-hydroxyethyl)-7-((trifluoromethyl)sulfonyl)-2,3-dihydro-1H-inden-1-ol] | > 1000 nM | 0.25 to 1 µM | > 1000 nM | – | –
24 | N#CC1(COc2ccc(S(=O)(=O)C(F)(F)F)c3c2CC(F)(F)C3O)CC1 (stereo not drawn) [Compound 620] | 50 to 249 nM | 0.05 to 0.249 µM | 50 to 249 nM | – | –
25 | O=[N+]([O-])c1c(Oc2cc(F)cc(Cl)c2)ccc(C(F)(F)F)c1Cl [Compound 203] | 50 to 249 nM | 0.25 to 1 µM | 250 to 1000 nM | – | –

Row | SMILES | IC50 [1, 2] | EC50 (786-O cells) | EC50 (786-O-Hif-Luc cells; [3]) | IC50 [1, 4] | EC50 (786-O-Hif-Luc cells; read-out: Mean Luciferase EC50 (nM))
26 | N#CC1(COc2ccc(S(=O)(=O)C(F)(F)F)c3c2CC(F)(F)[C@H]3O)CC1 [Compound 658] | < 50 nM | < 0.05 µM | < 50 nM | – | –
27 | Cc1cc(C#N)cc(Oc2ccc(S(=O)(=O)CF)c3c2CC(F)(F)[C@H]3O)c1 [Compound 166] | < 50 nM | 0.05 to 0.249 µM | < 50 nM | – | –
28 | CCCOc1ccc(S(=O)(=O)C(F)(F)F)c2c1CC(F)(F)[C@H]2O [Compound 655] | < 50 nM | < 0.05 µM | < 50 nM | – | –
29 | N#Cc1cc(F)cc(Oc2ccc(S(=O)(=O)C(F)F)cc2Br)c1 [Compound 132] | 250 to 1000 nM | 0.25 to 1 µM | > 1000 nM | – | –
30 | CS(=O)(=O)c1ccc(OC2CC(F)(F)C2)c2c1[C@H](O)C(F)(F)[C@@H]2F [Compound 574, (1S,3R)-4-(3,3-difluorocyclobutoxy)-2,2,3-trifluoro-7-(methylsulfonyl)-2,3-dihydro-1H-inden-1-ol] | < 50 nM | 0.05 to 0.249 µM | 50 to 249 nM | – | –
31 | CS(=O)(=NC#N)c1ccc(Oc2cc(F)cc(C#N)c2)c2c1[C@H](O)C(F)(F)C2 (stereo partly drawn) [Compound 245] | < 50 nM | 0.05 to 0.249 µM | 50 to 249 nM | – | –
32 | N#Cc1cncc(Oc2ccc3c(c2Br)[C@@H](O)C(F)(F)S3(=O)=O)c1 [Compound 424] | 50 to 249 nM | 0.25 to 1 µM | 50 to 249 nM | – | –
33 | CS(=O)(=O)c1ccc(OC2CC(F)(F)C2)c2c1[C@H](O)C(F)(F)C2 [Compound 734] | 50 to 249 nM | 0.25 to 1 µM | 50 to 249 nM | – | –
34 | N#Cc1cncc(Oc2ccc(S(=O)(=O)C(F)(F)F)c3c2C[C@@H](F)[C@H]3O)c1 [Compound 225] | < 50 nM | 0.05 to 0.249 µM | < 50 nM | – | –
35 | O=S(=O)(c1ccc(OCC2CC2)c2c1[C@H](O)C(F)(F)C2)C(F)(F)F [Compound 656] | < 50 nM | < 0.05 µM | < 50 nM | – | –
36 | CS(=O)(=O)c1ccc(Oc2cc(F)cc(F)c2)c2c1[C@H](O)C(F)(F)C2 [Compound 159] | < 50 nM | < 0.05 µM | < 50 nM | – | –
37 | O=S(=O)(c1ccc(OC2CCCCC2)c2c1C(O)C(F)(F)C2)C(F)(F)F (stereo not drawn) [Compound 617] | < 50 nM | < 0.05 µM | < 50 nM | – | –
38 | N#Cc1cccc(Oc2ccc(S(=O)(=O)C(F)F)c3c2CC(F)(F)[C@H]3O)c1 [Compound 236] | < 50 nM | < 0.05 µM | < 50 nM | – | –
39 | CC(C)COc1ccc(S(=O)(=O)C(F)(F)F)c2c1CC(F)(F)[C@H]2O [Compound 709] | < 50 nM | < 0.05 µM | < 50 nM | – | –
40 | O=S(=O)(c1ccc(OC2CCOCC2)c2c1[C@H](O)C(F)(F)C2)C(F)F [Compound 783] | < 50 nM | 0.05 to 0.249 µM | < 50 nM | – | –
41 | N#Cc1cc(Oc2ccc(S(=O)(=O)C(F)(F)F)c3c2CC(F)(F)[C@H]3O)ccc1F [Compound 228] | < 50 nM | < 0.05 µM | < 50 nM | – | –
42 | N=S1(=O)c2ccc(Oc3cc(F)cc(F)c3)c(C(F)F)c2C(O)C1(F)F (stereo not drawn) [Compound 398] | < 50 nM | 0.05 to 0.249 µM | 50 to 249 nM | – | –
43 | CC(C)(C#N)COc1ccc(S(=O)(=O)C(F)(F)F)c2c1CC(F)(F)C2O (stereo not drawn) [Compound 610] | < 50 nM | 0.05 to 0.249 µM | 50 to 249 nM | – | –
44 | O=S(=O)(c1ccc(OCC(F)F)c2c1[C@H](O)C(F)(F)C2)C(F)(F)F [Compound 571] | < 50 nM | < 0.05 µM | < 50 nM | – | –
45 | O=S1(=O)c2ccc(Oc3cc(F)cc(Cl)c3)c(C(F)(F)F)c2C(O)C1(F)F (stereo not drawn) [Compound 360] | – | 0.05 to 0.249 µM | – | < 50 nM | 50 to 249 nM
46 | N#Cc1cc(F)cc(Oc2ccc(S(=O)(=O)CF)c3c2CC(F)(F)[C@H]3O)c1 [Compound 63] | – | < 0.05 µM | < 50 nM | < 50 nM | –
47 | O=S(=O)(c1ccc(OC2CC(F)(F)C2)c2c1[C@H](O)C(F)(F)C2)C(F)(F)F [Compound 572] | < 50 nM | < 0.05 µM | < 50 nM | – | –
48 | CS(=O)(=NC#N)c1ccc(Oc2cc(F)cc(C#N)c2)c2c1[C@H](O)C(F)(F)[C@@H]2F (stereo partly drawn) [Compound 316] | < 50 nM | < 0.05 µM | < 50 nM | – | –
49 | COC[C@@H](C)Oc1ccc(S(=O)(=O)C(F)(F)F)c2c1CC(F)(F)[C@H]2O [Compound 659] | < 50 nM | 0.05 to 0.249 µM | 50 to 249 nM | – | –
